“Also recorded” adds a separate entry of the source.
Test system: SNc dopaminergic neurons
Assay: Whole cell patch clamp recordings of pacemaking in dopaminergic neurons in brain slices
Type: cell-based, mouse

For `COC(=O)C1=C(C)NC(C)=C(C(=O)OC(C)C)C1c1cccc2nonc12` (stereo not drawn) [isradipine, 3,5-pyridinedicarboxylic acid, 4-(4-benzofurazanyl)-1,4-dihydro-2,6-dimethyl-, methyl 1-methylethyl ester], the “effect of sustained blockade on pacemaking (altered pacemaking mechanism)” value (adult SNc dopaminergic neuron, before, during and after application, FIG. 4) was “altered pacemaking mechanism can be elicited; also recorded: restores pacemaking and dopaminergic neuron cell function through an altered pacemaking mechanism”.

In the case of `NC1=N[C@H](O)[C@H]2[C@H]3O[C@]4(O)O[C@@H]([C@@H](O)[C@@]2(N1)[C@@H]4O)[C@]3(O)CO` [tetrodotoxin], the “effect of blockade of TTX sensitive sodium channels on spikes and oscillations” value is reported as “eliminates spikes but not the underlying oscillations that drive pacemaking”.

In the case of `COCCOC(=O)C1=C(C)NC(C)=C(C(=O)OC(C)C)C1c1cccc([N+](=O)[O-])c1` (stereo not drawn) [nimodipine, isopropyl 2-methoxyethyl 1,4-dihydro-2,6-dimethyl-4-(m-nitrophenyl)-3,5-pyridinedicarboxylate], the “effect on autonomous pacemaking of dopaminergic neurons” value (tissue slice from an adult, FIG. 1) is reported as “inhibits autonomous pacemaking of dopaminergic neurons”.
